{"source": "patent US12648957B2", "about": "“Compositions and methods for the treatment of SWI-SNF mutant tumors” (The Children's Hospital of Philadelphia, priority 2019, dated 2026)", "key": {"[1]": {"system": "BT12 and G401 rhabdoid tumor cells", "experiment": "Dose response curves in BT12 and G401 cells", "format": "cell-based", "conditions": "for sensitivity of rhabdoid tumor cells (dose response curve): BT12 and G401", "experimental": "(§1) Cell Culture. BT12 and CHLA266 cell lines were obtained from the Children's Oncology Group. G401 cell line was obtained from ATCC. TC32 cells were obtained from Dr. Lee Helman (Children's Hospital of Los Angeles). U2OS cells were obtained from Dr. Chand Khanna (Ethos Veterinary Health LLC). All cell lines were grown in RPMI-1640 medium (Invitrogen) supplemented with 10% fetal bovine serum (Gemini Bio-Products), 2 mM L-glutamine (Invitrogen), 100 U/mL penicillin and 100 μg/mL streptomycin (Invitrogen). Cell lines were maintained at less than 80% confluency at 37° C. and 5% CO2 and confirmed to be mycoplasma negative every 6-months.\n(§2) Cell Proliferation Assays. IC50s were calculated with non-linear regression (Graphpad Prism) as the average of three independent experiments performed in duplicate. Cell viability was measured using MTS assay CellTiter96 (Promega) plotted against a standard curve and was confirmed with real-time proliferation assays on the Incucyte Zoom, as previously described (Harlow et al., 2019)."}, "[2]": {"system": "G401 rhabdoid tumor xenografts", "experiment": "Intramuscular G401 rhabdoid tumor xenograft model", "conditions": "for median survival: vehicle 28-days", "description": "Xenograft Experiments. 5×10^6 G401-luc cells were injected intramuscularly into the gastrocnemius of 8 to 10-week-old female homozygous nude mice (Crl; Nu-Foxn1^Nu). […] Pumps were implanted intraperitoneally and removed with 7-days after end of drug delivery. […] Investigators were not blinded to the treatment groups.\nBioluminescence Imaging. Mice were administered Firefly D-Luciferin (GoldBio, 1.5 mg/mouse) with intraperitoneal injections. After injection anesthesia was administered throughout the image acquisition (3% isoflurane at 1 L/min 02 flow). Bioluminescent images were taken 10 minutes after injection using the AMI-1000 imaging system.\nTissue Staining and Immunohistochemistry. Tissues were decalcified in 10% EDTA (pH 8.0) for 7-days prior to paraffin embedding. Paraffin embedded tissue was sectioned into 5-micrometer sections and mounted on colormark plus charged slides. Hematoxylin and Eosin staining was performed on the Ventana Symphony instrument. For immunohistochemistry, antigen retrieval was performed on the PT Link platform on the Dako Autostainer Plus instrument. Following blocking, tissue was incubated with H3K27me3 antibody (Abcam 1:250) or Cleaved Caspase-3 (Cell Signaling Antibody 1:250), washed and then secondary antibody (Envision+System HRP labelled polymer Anti-Rabbit, Dako 1:100) and finished with Dako Liquid DAB+Substrate Chromogen System."}, "[3]": {"system": "BT12 and G401 rhabdoid tumor cells", "experiment": "Live cell imaging proliferation and phenotype (Incucyte Zoom)", "format": "cell-based", "conditions": "BT12, EC-8042 200 nM compared with mithramycin 100 nM", "experimental": "as §2"}, "[4]": {"conditions": "multiple species; cited from earlier work"}, "[5]": {"system": "rhabdoid tumor cell lines (BT12 AT/RT, CHLA266 AT/RT, and G401 RTK)", "experiment": "Cell proliferation assay (MTS CellTiter96), rhabdoid tumor vs Ewing sarcoma cells", "format": "cell-based", "conditions": "three rhabdoid tumor cell lines vs Ewing sarcoma cells, FIG. 1C", "experimental": "as §1, §2"}, "[6]": {"system": "SP1", "experiment": "SP1 expression by quantitative PCR and western blot", "conditions": "BT12 and G401 cells, tolfenamic acid concentrations of FIG. 3G", "description": "RNA was subsequently collected using the RNeasy kit and quantified. The RNA was reverse transcribed with the high capacity reverse transcriptase kit (Life Technologies) at 25° C. for 10 minutes, 37° C. for 120 minutes, and 85° C. for 5 minutes. 100 ng cDNA was PCR amplified with 2×SYBR green at 95° C. for 10 min, 95° C. for 15 s, 55° C. for 15s, and 72° C. for 1 min, for 40 cycles. Expression from three independent experiments performed in duplicate was calculated with standard ddCT methods relative to GAPDH and solvent controls.\nCellular fractionation was performed to separate cytoplasmic and nuclear fractions. Fractionation lysates were lysed with cytoplasmic lysis buffer (25 mM HEPES pH 8.0, 50 mM KCl, and 05% NP-40) supplemented with RNAse (Thermo Fisher Scientific) and protease inhibitors (Sigma-Aldrich) for 15-minutes on ice vortexing every 5-minutes. The nuclei were pelleted at 1500× g for 5 minutes and the cytoplasmic fraction was isolated. The nuclei pellet was lysed with 4% LDS lysis buffer. Following dilution of detergent, protein was quantified with the BCA colorimetric assay (Thermo-Scientific). […] Transfer was run at 20 V and 4° C. overnight. The membranes were blocked with 5% milk in TBS-T (1×TBS, 0.1% Tween-20) and probed with Abcam (H3K27me3), EMD Millipore (SP1), and Cell Signaling (SMARCC1, SMARCE1, H3) antibodies."}, "[7]": {"conditions": "EC-8042 3-day pump, day 4, vs vehicle"}}}
{"smiles": "CO[C@@H]([C@@H]1Cc2cc3cc(O[C@H]4CC(O[C@H]5CC(O)[C@H](O)C(C)O5)[C@H](O)C(C)O4)c(C)c(O)c3c(O)c2C(=O)[C@H]1O[C@H]1CC(O[C@H]2CC(O[C@H]3CC(O)[C@H](O)C(C)O3)[C@@H](O)C(C)O2)[C@H](O)C(C)O1)[C@@H](O)C(C)=O", "note": "(stereo partly drawn) [EC-8042, demycarosyl-3D-β-D-ditioxosyl-mithramycin SK]", "values": [{"measurement": "sensitivity of rhabdoid tumor cells (dose response curve)", "setting": "[1]", "value": "sensitive"}, {"measurement": "concentration at which rhabdoid tumor is sensitive, relative to mithramycin", "setting": "[1]; in vitro, FIGS. S5A-B", "value": "slightly higher concentration as mithramycin"}, {"measurement": "body weight", "setting": "[2]; EC-8042 3-day and 7-day pump, resolved with cessation of drug infusion", "value": "minimal transient weight loss"}, {"measurement": "differentiation in xenograft tumors (H&E)", "setting": "[2]; EC-8042 3-day or 7-day pump", "value": "striking evidence of mesenchymal differentiation"}, {"measurement": "median survival", "setting": "[2]; EC-8042 3-day pump (30 mg/kg)", "value": 68, "unit": "days"}, {"measurement": "mice with complete cures", "setting": "[2]; EC-8042 3-day pump cohort", "value": "Three"}, {"measurement": "H3K27ac staining (IHC)", "setting": "[2]; [7]", "value": "decrease"}, {"measurement": "H3K27me3 staining (IHC)", "setting": "[2]; [7]", "value": "significantly increase in positive staining"}, {"measurement": "cleaved caspase 3 (CC3) staining (IHC)", "setting": "[2]; [7]", "value": "significantly increase in positive staining"}, {"measurement": "human mitochondrial staining (IHC)", "setting": "[2]; [7]", "value": "decrease"}, {"measurement": "median survival", "setting": "[2]; EC-8042 7-day pump (50 mg/kg)", "value": 70, "unit": "days"}, {"measurement": "calcification of tumor tissue (micro-CT)", "setting": "[2]; EC-8042, 7-days after treatment, compared with vehicle", "value": "enhances the calcification and mineralization"}, {"measurement": "duration of response post end of infusion", "setting": "[2]; EC-8042, most mice", "value": "~6", "unit": "weeks"}, {"measurement": "time after treatment without tumor recurrence in cured mice", "setting": "[2]; EC-8042, several mice", "value": 140, "unit": "days"}, {"measurement": "bioluminescent imaging of tumor", "setting": "[2]; EC-8042, subset of mice, end of infusion", "value": "almost no detectable tumor"}, {"measurement": "time to tumor recurrence after treatment end", "setting": "[2]; EC-8042 continuous infusion", "value": "approximately 40 days"}, {"measurement": "tumor response", "setting": "[2]; EC-8042 continuous infusion, 3-days (30 mg/kg) or 7-days (50 mg/kg), all mice in both cohorts", "value": "striking regressions"}, {"measurement": "cell phenotype", "setting": "[3]", "value": "lipid accumulation and a flattened cell phenotype"}, {"measurement": "toxicity relative to mithramycin", "setting": "[4]", "value": "more than 10 times"}]}
{"smiles": "CCc1c2c(nc3ccc(O)cc13)-c1cc3c(c(=O)n1C2)COC(=O)[C@]3(O)CC", "note": "[SN38]", "values": [{"measurement": "fold less sensitive than Ewing sarcoma cells", "setting": "[5]", "value": 100, "unit": "fold"}]}
{"smiles": "COc1cccc2c1C(=O)c1c(O)c3c(c(O)c1C2=O)C[C@@](O)(C(=O)CO)C[C@@H]3O[C@H]1C[C@H](N)[C@H](O)[C@H](C)O1", "note": "[doxorubicin]", "values": [{"measurement": "fold less sensitive than Ewing sarcoma cells", "setting": "[5]", "value": 4, "unit": "fold"}]}
{"smiles": "COc1cc([C@@H]2c3cc4c(cc3[C@@H](O[C@@H]3O[C@@H]5CO[C@@H](C)O[C@H]5[C@H](O)[C@H]3O)[C@H]3COC(=O)[C@H]23)OCO4)cc(OC)c1O", "note": "[etoposide]", "values": [{"measurement": "fold less sensitive than Ewing sarcoma cells", "setting": "[5]", "value": 70, "unit": "fold"}]}
{"smiles": "Cc1c(Cl)cccc1Nc1ccccc1C(=O)O", "note": "[tolfenamic acid, reference compound]", "values": [{"measurement": "sensitivity of rhabdoid tumor cells (dose response curve)", "setting": "[1]", "value": "not sensitive"}, {"measurement": "SP1 expression (western blot)", "setting": "[6]", "value": "loss of SP1 expression"}]}
